Tests used:
PI3K-p110α = PI3K-p110α (Homo sapiens, UniProt P42336); assay: Biochemical data, PI3K binding potency, PI3K-p110α
From the text: (§1) The following biochemical data have been generated for the exemplified compounds, showing PI3K binding potency.

PI3K-p110β = PI3K-p110β (Homo sapiens, UniProt P42338); assay: Biochemical data, PI3K binding potency, PI3K-p110β
From the text: as §1

PI3K-p110γ = PI3K-p110γ (Homo sapiens, UniProt P48736); assay: Biochemical data, PI3K binding potency, PI3K-p110γ
Sequence of PI3K-p110γ (P48736 whole entry): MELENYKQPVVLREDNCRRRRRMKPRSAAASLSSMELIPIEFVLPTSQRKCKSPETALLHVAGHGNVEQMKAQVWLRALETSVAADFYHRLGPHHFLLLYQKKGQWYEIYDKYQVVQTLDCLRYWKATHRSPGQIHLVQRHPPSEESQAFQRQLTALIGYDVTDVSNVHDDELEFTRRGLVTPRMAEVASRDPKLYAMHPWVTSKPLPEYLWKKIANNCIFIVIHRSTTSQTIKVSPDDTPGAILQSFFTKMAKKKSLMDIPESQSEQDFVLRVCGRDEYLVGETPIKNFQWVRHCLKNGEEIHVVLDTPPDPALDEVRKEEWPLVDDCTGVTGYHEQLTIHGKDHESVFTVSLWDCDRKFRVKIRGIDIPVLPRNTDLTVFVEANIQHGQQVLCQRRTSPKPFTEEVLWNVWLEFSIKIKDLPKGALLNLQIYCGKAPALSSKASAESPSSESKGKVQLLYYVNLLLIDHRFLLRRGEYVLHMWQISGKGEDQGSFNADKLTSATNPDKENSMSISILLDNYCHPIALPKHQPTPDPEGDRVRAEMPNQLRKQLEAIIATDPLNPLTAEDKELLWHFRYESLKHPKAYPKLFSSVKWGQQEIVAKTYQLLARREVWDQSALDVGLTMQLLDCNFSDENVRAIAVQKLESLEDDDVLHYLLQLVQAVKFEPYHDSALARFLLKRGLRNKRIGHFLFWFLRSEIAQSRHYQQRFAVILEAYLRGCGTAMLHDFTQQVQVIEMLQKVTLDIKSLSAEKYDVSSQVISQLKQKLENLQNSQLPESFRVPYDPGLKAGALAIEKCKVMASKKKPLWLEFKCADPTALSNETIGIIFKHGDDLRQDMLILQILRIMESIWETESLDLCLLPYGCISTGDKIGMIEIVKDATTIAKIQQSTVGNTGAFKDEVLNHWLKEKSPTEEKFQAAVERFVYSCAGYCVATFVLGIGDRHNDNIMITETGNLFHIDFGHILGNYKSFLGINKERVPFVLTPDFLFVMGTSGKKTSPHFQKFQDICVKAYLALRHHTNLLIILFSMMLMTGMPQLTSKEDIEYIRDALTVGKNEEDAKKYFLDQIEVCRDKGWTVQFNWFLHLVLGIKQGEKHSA
From the text: as §1

PI3K-p110δ = PI3K-p110δ (Homo sapiens, UniProt O00329); assay: Biochemical data, PI3K binding potency, PI3K-p110δ
Sequence of PI3K-p110δ (O00329 whole entry): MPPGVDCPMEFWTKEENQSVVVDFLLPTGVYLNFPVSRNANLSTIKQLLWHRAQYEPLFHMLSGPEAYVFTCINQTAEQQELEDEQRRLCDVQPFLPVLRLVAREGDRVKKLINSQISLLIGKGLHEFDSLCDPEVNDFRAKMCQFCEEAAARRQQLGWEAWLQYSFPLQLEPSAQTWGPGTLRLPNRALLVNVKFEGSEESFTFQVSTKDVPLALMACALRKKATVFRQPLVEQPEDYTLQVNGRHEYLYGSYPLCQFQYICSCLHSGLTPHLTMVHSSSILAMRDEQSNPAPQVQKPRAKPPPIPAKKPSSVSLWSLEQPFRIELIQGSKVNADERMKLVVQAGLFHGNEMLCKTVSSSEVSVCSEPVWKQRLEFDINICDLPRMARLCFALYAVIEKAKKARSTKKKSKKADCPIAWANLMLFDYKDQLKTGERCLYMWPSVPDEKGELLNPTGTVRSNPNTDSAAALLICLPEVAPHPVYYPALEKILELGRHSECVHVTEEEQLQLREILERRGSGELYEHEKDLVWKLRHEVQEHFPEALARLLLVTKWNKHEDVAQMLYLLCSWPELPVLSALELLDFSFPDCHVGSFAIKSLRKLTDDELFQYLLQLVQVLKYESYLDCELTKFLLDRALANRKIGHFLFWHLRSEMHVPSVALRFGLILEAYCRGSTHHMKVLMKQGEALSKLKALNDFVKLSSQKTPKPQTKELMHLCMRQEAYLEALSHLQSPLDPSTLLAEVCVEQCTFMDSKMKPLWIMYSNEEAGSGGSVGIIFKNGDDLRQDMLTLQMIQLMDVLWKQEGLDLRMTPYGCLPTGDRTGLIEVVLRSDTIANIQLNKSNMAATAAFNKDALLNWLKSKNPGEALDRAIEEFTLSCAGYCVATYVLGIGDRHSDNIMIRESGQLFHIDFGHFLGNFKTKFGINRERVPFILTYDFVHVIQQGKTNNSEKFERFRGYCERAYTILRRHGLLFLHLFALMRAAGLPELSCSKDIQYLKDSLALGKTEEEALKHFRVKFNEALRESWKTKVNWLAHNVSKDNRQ
Sequence of PI3K-p110δ (P27986 whole entry partner): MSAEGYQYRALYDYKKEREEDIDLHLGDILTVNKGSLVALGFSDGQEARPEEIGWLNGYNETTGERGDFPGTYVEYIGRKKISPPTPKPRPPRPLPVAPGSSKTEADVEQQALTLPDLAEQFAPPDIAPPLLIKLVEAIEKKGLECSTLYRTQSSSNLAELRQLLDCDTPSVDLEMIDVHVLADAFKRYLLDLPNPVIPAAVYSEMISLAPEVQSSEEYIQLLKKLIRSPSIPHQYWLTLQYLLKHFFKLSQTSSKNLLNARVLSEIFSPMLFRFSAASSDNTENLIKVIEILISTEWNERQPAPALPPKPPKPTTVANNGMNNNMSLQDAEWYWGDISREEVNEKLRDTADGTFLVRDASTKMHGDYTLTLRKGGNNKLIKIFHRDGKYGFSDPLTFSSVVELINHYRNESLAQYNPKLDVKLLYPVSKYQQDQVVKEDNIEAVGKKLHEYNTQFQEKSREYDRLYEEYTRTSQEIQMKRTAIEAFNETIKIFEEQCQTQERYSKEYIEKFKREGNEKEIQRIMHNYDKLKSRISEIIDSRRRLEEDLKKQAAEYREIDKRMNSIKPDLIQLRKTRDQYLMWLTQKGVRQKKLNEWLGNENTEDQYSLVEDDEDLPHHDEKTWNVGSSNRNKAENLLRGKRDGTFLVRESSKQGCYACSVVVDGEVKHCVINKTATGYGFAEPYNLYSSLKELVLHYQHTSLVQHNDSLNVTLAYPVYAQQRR
From the text: as §1

Sequence of PI3K-p110α (P42336 whole entry): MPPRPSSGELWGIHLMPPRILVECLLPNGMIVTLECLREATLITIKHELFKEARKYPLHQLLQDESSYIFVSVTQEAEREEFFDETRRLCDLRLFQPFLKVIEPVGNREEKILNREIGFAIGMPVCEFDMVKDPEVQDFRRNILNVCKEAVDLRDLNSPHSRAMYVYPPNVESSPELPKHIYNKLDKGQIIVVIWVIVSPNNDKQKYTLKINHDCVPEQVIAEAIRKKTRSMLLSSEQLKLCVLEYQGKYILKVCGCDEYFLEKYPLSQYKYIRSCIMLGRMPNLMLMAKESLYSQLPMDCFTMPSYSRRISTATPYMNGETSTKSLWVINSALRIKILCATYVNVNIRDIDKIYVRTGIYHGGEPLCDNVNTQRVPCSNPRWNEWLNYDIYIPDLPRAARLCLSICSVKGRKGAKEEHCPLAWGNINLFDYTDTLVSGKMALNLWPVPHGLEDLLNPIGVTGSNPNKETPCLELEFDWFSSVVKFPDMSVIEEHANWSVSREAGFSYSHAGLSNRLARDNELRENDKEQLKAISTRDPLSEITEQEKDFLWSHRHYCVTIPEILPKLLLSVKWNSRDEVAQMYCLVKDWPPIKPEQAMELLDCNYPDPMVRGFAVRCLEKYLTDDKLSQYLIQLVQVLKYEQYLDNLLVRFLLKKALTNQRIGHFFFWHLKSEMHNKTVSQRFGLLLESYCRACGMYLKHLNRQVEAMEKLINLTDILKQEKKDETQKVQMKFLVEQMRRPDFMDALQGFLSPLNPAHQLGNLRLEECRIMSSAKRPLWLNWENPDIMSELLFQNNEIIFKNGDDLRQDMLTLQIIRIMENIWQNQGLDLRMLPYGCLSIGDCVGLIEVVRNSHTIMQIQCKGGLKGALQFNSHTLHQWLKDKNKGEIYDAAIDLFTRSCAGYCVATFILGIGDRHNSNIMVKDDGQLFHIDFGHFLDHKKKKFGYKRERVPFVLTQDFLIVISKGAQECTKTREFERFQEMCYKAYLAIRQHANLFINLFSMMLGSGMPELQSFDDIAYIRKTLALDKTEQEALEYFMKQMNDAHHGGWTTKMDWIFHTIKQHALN
Sequence of PI3K-p110α (P27986 whole entry partner): as the sequence (P27986 whole entry partner) above
Sequence of PI3K-p110β (P42338 whole entry): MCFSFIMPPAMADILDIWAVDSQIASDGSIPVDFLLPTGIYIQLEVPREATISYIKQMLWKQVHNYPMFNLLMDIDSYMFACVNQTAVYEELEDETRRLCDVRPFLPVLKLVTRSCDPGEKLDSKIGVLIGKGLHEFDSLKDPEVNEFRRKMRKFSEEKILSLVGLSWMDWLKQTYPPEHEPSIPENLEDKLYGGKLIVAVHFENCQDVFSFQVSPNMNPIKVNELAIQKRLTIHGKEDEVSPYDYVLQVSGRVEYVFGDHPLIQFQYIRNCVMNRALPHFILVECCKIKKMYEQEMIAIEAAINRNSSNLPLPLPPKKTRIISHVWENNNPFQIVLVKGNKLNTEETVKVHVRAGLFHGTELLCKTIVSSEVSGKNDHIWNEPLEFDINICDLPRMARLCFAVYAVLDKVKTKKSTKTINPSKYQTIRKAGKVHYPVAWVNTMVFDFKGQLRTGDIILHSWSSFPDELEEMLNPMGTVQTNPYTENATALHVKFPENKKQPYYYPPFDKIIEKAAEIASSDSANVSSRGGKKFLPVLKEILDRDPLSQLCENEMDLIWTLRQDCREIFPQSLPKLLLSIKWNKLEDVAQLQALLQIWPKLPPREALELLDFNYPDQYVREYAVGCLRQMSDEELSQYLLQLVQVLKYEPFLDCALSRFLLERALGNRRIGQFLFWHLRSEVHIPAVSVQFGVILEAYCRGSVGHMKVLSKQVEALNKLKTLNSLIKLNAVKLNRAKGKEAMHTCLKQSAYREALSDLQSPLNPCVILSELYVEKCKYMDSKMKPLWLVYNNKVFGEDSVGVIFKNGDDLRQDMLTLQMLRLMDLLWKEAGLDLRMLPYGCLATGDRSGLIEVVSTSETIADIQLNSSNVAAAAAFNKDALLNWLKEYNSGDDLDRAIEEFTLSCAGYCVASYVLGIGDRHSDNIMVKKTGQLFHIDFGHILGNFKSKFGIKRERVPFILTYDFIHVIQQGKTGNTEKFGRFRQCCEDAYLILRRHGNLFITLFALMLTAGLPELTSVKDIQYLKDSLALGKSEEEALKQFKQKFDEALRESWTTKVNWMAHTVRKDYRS
Sequence of PI3K-p110β (P27986 whole entry partner): as the sequence (P27986 whole entry partner) above

Row | IC50 (PI3K-p110α) [nM] | IC50 (PI3K-p110β) [nM] | IC50 (PI3K-p110γ) [nM] | IC50 (PI3K-p110δ) [nM] | SMILES
1 | ≥ 10000 | 247 | ≥ 10000 | 177 | CN(C)CCCC(=O)Nc1cc(-c2cccc3[nH]ccc23)nc(N2CCOCC2)c1 [B, 4-Dimethylamino-N-[2-(1H-indol-4-yl)-6-morpholin-4-yl-pyridin-4-yl]-butyramide]
2 |  |  |  | 953 | O=C(CCCN1CCCC1)Nc1cc(-c2cccc3[nH]ccc23)nc(N2CCOCC2)c1 [C, N-[2-(1H-Indol-4-yl)-6-morpholin-4-yl-pyridin-4-yl]-4-pyrrolidin-1-yl-butyramide]

— patent publication US10035785B2, “Phosphoinositide 3-kinase inhibitors” (Karus Therapeutics Limited, priority 2012, dated 2018)
